Starred links: 1 amine or outer side, 2 acyl side, 3 side chain; linkers in the order of their positions; H or OH if unused. Positions of bridges follow the written chain, without caps; N, C: chain ends. Non-standard residues stand in square brackets, D forms with d. Residues, ends and D or L forms follow the SMILES beside them. Phe(4-COOH) = N[C@@H](Cc1ccc(C(=O)O)cc1)C(=O)O; Pyridine(2,6-diCH2) = c1cc(C[*:1])nc(C[*:2])c1; Trp(5-F) = N[C@@H](Cc1c[nH]c2ccc(F)cc12)C(=O)O; Trp(6-F) = N[C@@H](Cc1c[nH]c2cc(F)ccc12)C(=O)O; Pyridine(3,5-bisCH2) = c1ncc(C[*:2])cc1C[*:1]; Pro(trans-4-F) = O=C(O)[C@@H]1C[C@@H](F)CN1; Pro(cis-4-F) = O=C(O)[C@@H]1C[C@H](F)CN1; TBMB = c1c(C[*:1])cc(C[*:3])cc1C[*:2]; mXylylene = c1cc(C[*:1])cc(C[*:2])c1; X15 = Brc1cc(C[*:1])cc(C[*:2])c1; X35 = COc1cc(C[*:1])cc(C[*:2])c1; X22 = Oc1cc(C[*:1])cc(C[*:2])c1; X8 = Clc1cc(C[*:1])cc(C[*:2])c1; aThr = C[C@H](O)[C@H](N)C(=O)O; αMeP = C[C@@]1(C(=O)O)CCCN1; Ahx = NCCCCCC(=O)O; Mpa = O=C(O)CCS
What was measured:
[1] = biological target: human PCSK9 / human LDLR EGFa domain interaction (Homo sapiens (Human), UniProt Q8NBP7); assay: TR-FRET assay of inhibition of the PCSK9-LDLR protein-protein interaction; format: binding; conditions: TR-FRET, 20 nM human PCSK9, 20 nM human LDLR EGFa domain, 2 hours room temperature; read-out: IC50
Chain of human PCSK9 / human LDLR EGFa domain interaction (Q8NBP7 153-692): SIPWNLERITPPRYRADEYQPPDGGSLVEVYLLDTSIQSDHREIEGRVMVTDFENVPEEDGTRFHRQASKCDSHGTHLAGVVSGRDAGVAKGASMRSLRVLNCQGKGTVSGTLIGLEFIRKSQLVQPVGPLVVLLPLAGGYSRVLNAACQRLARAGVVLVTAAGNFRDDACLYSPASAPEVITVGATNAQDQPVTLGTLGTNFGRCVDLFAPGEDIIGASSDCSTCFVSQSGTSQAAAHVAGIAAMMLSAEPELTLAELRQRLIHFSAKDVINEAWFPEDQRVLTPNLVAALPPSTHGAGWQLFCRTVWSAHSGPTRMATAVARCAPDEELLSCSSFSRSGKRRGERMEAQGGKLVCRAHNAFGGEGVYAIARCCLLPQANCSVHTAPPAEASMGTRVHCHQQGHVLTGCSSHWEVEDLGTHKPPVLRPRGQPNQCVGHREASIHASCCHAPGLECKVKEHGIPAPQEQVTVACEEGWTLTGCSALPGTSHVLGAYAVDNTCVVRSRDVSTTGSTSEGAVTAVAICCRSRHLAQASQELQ
Chain of human PCSK9 / human LDLR EGFa domain interaction (Q8NBP7 31-152 partner): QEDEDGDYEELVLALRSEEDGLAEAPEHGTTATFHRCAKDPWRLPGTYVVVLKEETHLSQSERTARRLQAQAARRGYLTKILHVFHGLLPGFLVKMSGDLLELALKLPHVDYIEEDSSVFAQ
How it was run: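 Readout is the TR-FRET signal between europium anti-6×His on his-tagged LDLR EGFa domain and Ulight streptavidin on biotinylated PCSK9, both proteins at 20 nM and both detection reagents at 5 nM. Incubation lasted 2 hours at room temperature; compounds were run in dose-response with a 4-parameter fit.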

PCSK9 = PCSK9 (Homo sapiens (Human), UniProt Q8NBP7); assay: PCSK9 Alexa FRET Standard assay (displacement of AlexaFluor647 tagged cyclic peptide Reagent A); format: binding; conditions: PCSK9 Alexa FRET Standard assay, 0.5 nM PCSK9, 20 nM AF cyclic peptide Reagent A; read-out: IC50
Chain of PCSK9 (Q8NBP7 153-692): as the sequence (Q8NBP7 153-692) above
How it was run: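 TR-FRET displacement: 0.5 nM biotinylated PCSK9 with 1.25 nM Strep-Eu and 20 nM AlexaFluor-tagged cyclic peptide (final) in 50 mM HEPES pH 7.4, 0.15 M NaCl, 5 mM CaCl2, 0.01% BSA, 0.01% P20, ≥2 h at room temperature. IC50 from sigmoidal fit, converted to Ki via peptide KD; falling Eu counts flagged false positives.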

| Structure (SMILES) | IC50 [1] [µM] | IC50 (PCSK9) [µM] |
| --- | --- | --- |
| COc1ccc(C[C@@H]2NC(=O)[C@H]([C@H](C)O)NC(=O)[C@@H]3C[C@H](F)CN3C(=O)[C@H](Cc3c[nH]c4cc(F)ccc34)NC(=O)[C@H](Cc3c[nH]c4ccc(F)cc34)NC(=O)[C@@H](C)NC(=O)CCCCCNC(=O)c3ccc(cc3)C[C@@H](C(N)=O)NC(=O)[C@]3(C)CCCN3C2=O)cc1 [Compound 057] ([Ahx][dA][Trp(5-F)][Trp(6-F)][Pro(cis-4-F)][aThr]Y(Me)[αMeP][Phe(4-COOH)]-NH2; lactam N-9) | 1 to 12.1 | 21 to 50 |
| COc1ccc(C[C@@H]2NC(=O)[C@H]([C@@H](C)O)NC(=O)[C@@H]3CCCN3C(=O)[C@H](Cc3c[nH]c4ccc(F)cc34)NC(=O)[C@H](Cc3c[nH]c4ccc(F)cc34)NC(=O)[C@@H](C)NC(=O)[C@H](CCCCN)NC(=O)CCSCc3cncc(c3)CSC[C@@H](C(N)=O)NC(=O)[C@]3(C)CCCN3C2=O)cc1 [Compound 058] ([Mpa]K[dA][Trp(5-F)][Trp(5-F)]PTY(Me)[αMeP]C-NH2; linker 1-10 via Pyridine(3,5-bisCH2)) | 0.0001 to 0.1 | 0.00011 to 0.1 |
| CO[C@H](C)[C@@H]1NC(=O)[C@@H]2C[C@@H](F)CN2C(=O)[C@H](Cc2c[nH]c3ccc(F)cc23)NC(=O)[C@H](Cc2c[nH]c3ccc(F)cc23)NC(=O)CNC(=O)[C@H](CCCCN)NC(=O)CCSCc2cccc(c2)CSC[C@@H](C(N)=O)NC(=O)[C@]2(C)CCCN2C(=O)[C@H](Cc2ccc(O)cc2)NC1=O [Compound 059] ([Mpa]KG[Trp(5-F)][Trp(5-F)][Pro(trans-4-F)]T(Me)Y[αMeP]C-NH2; linker 1-10 via mXylylene) | 0.1 to 1 | 0.1 to 1 |
| COc1ccc(C[C@@H]2NC(=O)[C@H]([C@@H](C)O)NC(=O)[C@@H]3CCCN3C(=O)[C@H](Cc3c[nH]c4ccc(F)cc34)NC(=O)[C@H](Cc3c[nH]c4ccc(F)cc34)NC(=O)[C@@H](C)NC(=O)[C@H](CCCCN)NC(=O)CCSCc3cc(cc(OC)c3)CSC[C@@H](C(N)=O)NC(=O)[C@]3(C)CCCN3C2=O)cc1 [Compound 063] ([Mpa]K[dA][Trp(5-F)][Trp(5-F)]PTY(Me)[αMeP]C-NH2; linker 1-10 via X35) | 1 to 12.1 | 21 to 50 |
| COc1ccc(C[C@@H]2NC(=O)[C@H]([C@@H](C)O)NC(=O)[C@@H]3CCCN3C(=O)[C@H](Cc3c[nH]c4ccc(F)cc34)NC(=O)[C@H](Cc3c[nH]c4ccc(F)cc34)NC(=O)[C@@H](C)NC(=O)[C@H](CCCCN)NC(=O)CCSCc3cccc(n3)CSC[C@@H](C(N)=O)NC(=O)[C@]3(C)CCCN3C2=O)cc1 [Compound 065] ([Mpa]K[dA][Trp(5-F)][Trp(5-F)]PTY(Me)[αMeP]C-NH2; linker 1-10 via Pyridine(2,6-diCH2)) | 0.0001 to 0.1 | 0.1 to 1 |

The next lines start with the values.

| IC50 [1] [µM] | IC50 (PCSK9) [µM] | Structure (SMILES) |
| --- | --- | --- |
| 21 to 50 | 21 to 50 | COc1ccc(C[C@@H]2NC(=O)[C@H]([C@@H](C)O)NC(=O)[C@@H]3CCCN3C(=O)[C@H](Cc3c[nH]c4ccc(F)cc34)NC(=O)[C@H](Cc3c[nH]c4ccc(F)cc34)NC(=O)[C@@H](C)NC(=O)[C@H](CCCCN)NC(=O)CCSCc3cc(O)cc(c3)CSC[C@@H](C(N)=O)NC(=O)[C@]3(C)CCCN3C2=O)cc1 [Compound 060] ([Mpa]K[dA][Trp(5-F)][Trp(5-F)]PTY(Me)[αMeP]C-NH2; linker 1-10 via X22) |
| 21 to 50 | 21 to 50 | COc1ccc(C[C@@H]2NC(=O)[C@H]([C@@H](C)O)NC(=O)[C@@H]3CCCN3C(=O)[C@H](Cc3c[nH]c4ccc(F)cc34)NC(=O)[C@H](Cc3c[nH]c4ccc(F)cc34)NC(=O)[C@@H](C)NC(=O)[C@H](CCCCN)NC(=O)CCSCc3cc(Br)cc(c3)CSC[C@@H](C(N)=O)NC(=O)[C@]3(C)CCCN3C2=O)cc1 [Compound 061] ([Mpa]K[dA][Trp(5-F)][Trp(5-F)]PTY(Me)[αMeP]C-NH2; linker 1-10 via X15) |
| 1 to 12.1 | 1 to 12.1 | COc1ccc(C[C@@H]2NC(=O)[C@H]([C@@H](C)O)NC(=O)[C@@H]3CCCN3C(=O)[C@H](Cc3c[nH]c4ccc(F)cc34)NC(=O)[C@H](Cc3c[nH]c4ccc(F)cc34)NC(=O)[C@@H](C)NC(=O)[C@H](CCCCN)NC(=O)CCSCc3cc(C)cc(c3)CSC[C@@H](C(N)=O)NC(=O)[C@]3(C)CCCN3C2=O)cc1 [Compound 062] ([Mpa]K[dA][Trp(5-F)][Trp(5-F)]PTY(Me)[αMeP]C-NH2; linker 1-10 via TBMB) |
| 1 to 12.1 | 1 to 12.1 | COc1ccc(C[C@@H]2NC(=O)[C@H]([C@@H](C)O)NC(=O)[C@@H]3CCCN3C(=O)[C@H](Cc3c[nH]c4ccc(F)cc34)NC(=O)[C@H](Cc3c[nH]c4ccc(F)cc34)NC(=O)[C@@H](C)NC(=O)[C@H](CCCCN)NC(=O)CCSCc3cc(Cl)cc(c3)CSC[C@@H](C(N)=O)NC(=O)[C@]3(C)CCCN3C2=O)cc1 [Compound 064] ([Mpa]K[dA][Trp(5-F)][Trp(5-F)]PTY(Me)[αMeP]C-NH2; linker 1-10 via X8) |

— US11530244B2, “Cyclic polypeptides for PCSK9 inhibition” (priority 2018, dated 2022)
